Read-outs that look alike come from different tables or passages of the source.
Experiments:
Experiment in all cases: microbe, parasite or virus in culture
Format in all cases: cell-based
[1] = system: Chlamydophila caviae; conditions: read-out: Avg Activity (C. Caviae)
[2] = system: vaccinia virus; conditions: read-out: Avg Activity (VV)
[3] = system: influenza virus; conditions: unidentified influenza virus, A549, read-out: Misc Activity: Influenza
[4] = system: La Crosse virus (LACV); conditions: read-out: Avg Activity (LACV)

| Molecule | EC50 ([1]; Chlamydia caviae, Vero) | EC50 ([2]; Orthopoxvirus vaccinia) | EC50 [3] | EC50 ([4]; La Crosse virus, Vero) | EC50 [1] | EC50 [2] | EC50 [4] |
| --- | --- | --- | --- | --- | --- | --- | --- |
| COc1cc(NC(=S)NC(=O)c2ccc(C(C)(C)C)cc2)ccc1N [Compound 1, N-[(4-amino-3-methoxy-phenyl)carbamothioyl]-4-tert-butyl-benzamide] | < 1 µM | < 1 µM | < 1 µM | < 1 µM | – | – | – |
| CC(C)(C)c1ccc(C(=O)NC(=S)Nc2ccc(NC(=O)c3ccccc3)cc2)cc1 [Compound 43, N-[(4-benzamidophenyl)-carbamothioyl]-4-tert-butyl-benzamide] | < 1 µM | < 1 µM | – | < 1 µM | – | – | – |
| CC(C)(C)c1ccc(C(=O)NC(=S)Nc2cc(C(F)(F)F)ccc2Cl)cc1 [Compound 44, 4-tert-butyl-N-[[2-chloro-5-(trifluoromethyl)phenyl]-carbamothioyl]benzamide] | < 1 µM | < 1 µM | – | < 1 µM | – | – | – |
| CC(C)(C)c1ccc(C(=O)NC(=S)Nc2cc(C(C)(C)C)ccc2O)cc1 [Compound 46, 4-tert-butyl-N-[(5-tert-butyl-2-hydroxy-phenyl)-carbamothioyl]benzamide] | < 1 µM | < 1 µM | – | 1 to 10 µM | – | – | – |
| Cc1c(Cl)cccc1NC(=S)NC(=O)c1ccc(C(C)(C)C)cc1 [Compound 47, 4-tert-butyl-N-[(3-chloro-2-methyl-phenyl)-carbamothioyl]benzamide] | < 1 µM | 1 to 10 µM | – | < 1 µM | – | – | – |
| CC(C)(C)c1ccc(C(=O)NC(=S)Nc2cc(Cl)ccc2Cl)cc1 [Compound 50, 4-tert-butyl-N-[(2,5-dichlorophenyl)-carbamothioyl]benzamide] | < 1 µM | 1 to 10 µM | – | 1 to 10 µM | – | – | – |
| COc1ccccc1NC(=S)NC(=O)c1ccc(C(C)(C)C)cc1 [Compound 51, 4-tert-butyl-N-[(2-methoxyphenyl)-carbamothioyl]benzamide] | < 1 µM | 1 to 10 µM | – | 1 to 10 µM | – | – | – |
| CC(C)(C)c1ccc(C(=O)NC(=S)Nc2cccc(Cl)c2)cc1 [Compound 52, 4-tert-butyl-N-[(3-chlorophenyl)-carbamothioyl]benzamide] | < 1 µM | 1 to 10 µM | – | 1 to 10 µM | – | – | – |
| CC(C)(C)c1ccc(C(=O)NC(=S)Nc2ccccc2)cc1 [Compound 53, 4-tert-butyl-N-(phenylcarbamothioyl)-benzamide] | < 1 µM | 1 to 10 µM | – | 1 to 10 µM | – | – | – |
| Cc1cccc(NC(=S)NC(=O)c2ccc(C(C)(C)C)cc2)c1C [Compound 54, 4-tert-butyl-N-[(2,3-dimethylphenyl)-carbamothioyl]benzamide] | < 1 µM | 1 to 10 µM | – | 1 to 10 µM | – | – | – |
| Cc1ccc(NC(=S)NC(=O)c2ccc(C(C)(C)C)cc2)cc1C [Compound 55, 4-tert-butyl-N-[(3,4-dimethylphenyl)-carbamothioyl]benzamide] | < 1 µM | 1 to 10 µM | – | 1 to 10 µM | – | – | – |
| CCOc1ccccc1NC(=S)NC(=O)c1ccc(C(C)(C)C)cc1 [Compound 56, 4-tert-butyl-N-[(2-ethoxyphenyl)-carbamothioyl]benzamide] | < 1 µM | 1 to 10 µM | – | 1 to 10 µM | – | – | – |
| CC(C)C(=O)Nc1cccc(NC(=S)NC(=O)c2ccc(C(C)(C)C)cc2)c1 [Compound 57, 4-tert-butyl-N-[[3-(2-methylpropanoylamino)-phenyl]carbamothioyl]-benzamide] | < 1 µM | 1 to 10 µM | – | 1 to 10 µM | – | – | – |
| CC(C)(C)c1ccc(C(=O)NC(=S)Nc2ccccc2[N+](=O)[O-])cc1 [Compound 58, 4-tert-butyl-N-[(2-nitrophenyl)carbamothioyl]-benzamide] | < 1 µM | 1 to 10 µM | – | 1 to 10 µM | – | – | – |
| Cc1ccc(NC(=S)NC(=O)c2ccc(C(C)(C)C)cc2)cc1 [Compound 59, 4-tert-butyl-N-(p-tolylcarbamothioyl)-benzamide] | < 1 µM | 1 to 10 µM | – | 1 to 10 µM | – | – | – |
| CC(C)(C)c1ccc(C(=O)NC(=S)Nc2ccc(N)cc2)cc1 [Compound 60, N-[(4-aminophenyl)-carbamothioyl]-4-tert-butyl-benzamide] | < 1 µM | 1 to 10 µM | – | 1 to 10 µM | – | – | – |
| CC(C)(C)c1ccc(C(=O)NC(=S)Nc2ccccc2F)cc1 [Compound 61, 4-tert-butyl-N-[(2-fluorophenyl)carbamothioyl]-benzamide] | 1 to 10 µM | 1 to 10 µM | – | 1 to 10 µM | – | – | – |
| CCC(=O)Nc1cccc(NC(=S)NC(=O)c2ccc(C(C)(C)C)cc2)c1 [Compound 62, 4-tert-butyl-N-[[3-(propanoylamino)phenyl]-carbamothioyl]benzamide] | 1 to 10 µM | 1 to 10 µM | – | 1 to 10 µM | – | – | – |
| Cc1cccc(NC(=S)NC(=O)c2ccc(C(C)(C)C)cc2)c1 [Compound 63, 4-tert-butyl-N-(m-tolylcarbamothioyl)-benzamide] | 1 to 10 µM | 1 to 10 µM | – | 1 to 10 µM | – | – | – |
| CC(C)(C)c1ccc(C(=O)NC(=S)NC2CCCCC2)cc1 [Compound 64, 4-tert-butyl-N-(cyclohexyl-carbamothioyl)benzamide] | 1 to 10 µM | 1 to 10 µM | – | 1 to 10 µM | – | – | – |
| Cc1cc(C)cc(NC(=S)NC(=O)c2ccc(C(C)(C)C)cc2)c1 [Compound 65, 4-tert-butyl-N-[(3,5-dimethylphenyl)-carbamothioyl]benzamide] | 1 to 10 µM | 1 to 10 µM | – | 1 to 10 µM | – | – | – |
| COc1cccc(NC(=S)NC(=O)c2ccc(C(C)(C)C)cc2)c1 [Compound 66, 4-tert-butyl-N-[(3-methoxyphenyl)-carbamothioyl]benzamide] | < 1 µM | 1 to 10 µM | – | > 25 µM | – | – | – |
| Cc1ccc(C)c(NC(=S)NC(=O)c2ccc(C(C)(C)C)cc2)c1 [Compound 67, 4-tert-butyl-N-[(2,5-dimethylphenyl)-carbamothioyl]benzamide] | < 1 µM | 1 to 10 µM | – | > 25 µM | – | – | – |
| COc1ccc(NC(=S)NC(=O)c2ccc(C(C)(C)C)cc2)cc1 [Compound 68, 4-tert-butyl-N-[(4-methoxyphenyl)-carbamothioyl]benzamide] | 1 to 10 µM | 1 to 10 µM | – | > 25 µM | – | – | – |
| CC(C)(C)c1ccc(C(=O)NC(=S)Nc2ccc([N+](=O)[O-])cc2)cc1 [Compound 69, 4-tert-butyl-N-[(4-nitrophenyl)-carbamothioyl]benzamide] | > 25 µM | 1 to 10 µM | – | > 25 µM | – | – | – |
| Cc1cccc(C)c1NC(=S)NC(=O)c1ccc(C(C)(C)C)cc1 [Compound 71, 4-tert-butyl-N-[(2,6-dimethylphenyl)-carbamothioyl]benzamide] | < 1 µM | 10 to 25 µM | – | > 25 µM | – | – | – |
| Cc1sc(NC(=S)NC(=O)c2ccc(C(C)(C)C)cc2)c(C#N)c1C [Compound 72, 4-tert-butyl-N-[(3-cyano-4,5-dimethyl-2-thienyl)-carbamothioyl]benzamide] | 10 to 25 µM | 10 to 25 µM | – | > 25 µM | – | – | – |
| CCNC(=S)NC(=O)c1ccc(C(C)(C)C)cc1 [Compound 73, 4-tert-butyl-N-(ethylcarbamothioyl)-benzamide] | > 25 µM | 10 to 25 µM | – | > 25 µM | – | – | – |
| N-[3-[(4-tert-butylbenzoyl)-carbamothioylamino]phenyl]-2-chloro-benzamide [Compound 74] | – | – | – | – | > 25 µM | > 25 µM | 1 to 10 µM |
